From patent US9403832B2, “Pyrazolo[1,5-a]pyrimidine-based compounds, compositions comprising them, and methods of their use” (Lexicon Pharmaceuticals, Inc., priority 2012, dated 2016)

Each compound was assayed against T1, AAK1 (Homo sapiens, UniProt Q2M2I8) (assay: P81 filter plate assay). Details: full-length human AAK1, Mu2 substrate, 33P-ATP.
T1 construct: NP_055726.2
Assay type: biochemical
Method: Compounds were serially diluted into a Labcyte LDV plate (Labcyte, cat#LP-0200) using a Mutiprobe (PerkinElmer) and Biomek FX (Beckman Coulter) so that the highest compound concentration was at 96 μM. Compounds were then pinged (75 nL per well) into a Greiner 384-well reaction plate (Greiner, #781076) using an ECHO 550 Liquid Handler (Labcyte). A total of 12 μl reaction buffer (IMAP buffer containing Tween and DTT, from Molecular Devices) was then added to each well of columns 1 and 13 for the negative controls and 12 μl of 2× AAK1 (0.2 nM full-length human protein, NCBI accession no. NP_055726.2) was added to the remaining wells. Enzyme was then pre-incubated with compound for 10 minutes at RT. Reactions were initiated upon Minitrak (PerkinElmer) addition of 12 μl substrate mix containing 2× Mu2 (0.2 μM, full length human protein), 2× cold ATP (2 μM), and 1.3 μCi of hot ^33P-ATP. […] proceeded for one hour at RT. Meanwhile, Millipore 384-well P81 filter plates (Millipore, catalog #MZPHNOW10) were placed on a plate washer (Zoom ZW, from Titertek) and pre-wet with 50 μl 1% phosphoric acid. Kinase reactions were then stopped upon addition of 24 μl of 2% phosphoric acid to each well and the Minitrak was then used to transfer 40 μl from each well into the pre-wet Millipore 384-well P81 filter plates. Reaction mixtures were incubated for 10 minutes at RT in the P81 plates, followed by washing five times with 100 μl/well of 1% phosphoric acid using the Zoom filter washer. The bottom of each filter plate was sealed followed by addition of 20 μl Microscint 40 to each well, sealing the top of the plates with Flashplate cover, and then waiting one hour until reading on the TopCount (PerkinElmer).

T1 sequence (Q2M2I8 1-863 isoform Q2M2I8-2): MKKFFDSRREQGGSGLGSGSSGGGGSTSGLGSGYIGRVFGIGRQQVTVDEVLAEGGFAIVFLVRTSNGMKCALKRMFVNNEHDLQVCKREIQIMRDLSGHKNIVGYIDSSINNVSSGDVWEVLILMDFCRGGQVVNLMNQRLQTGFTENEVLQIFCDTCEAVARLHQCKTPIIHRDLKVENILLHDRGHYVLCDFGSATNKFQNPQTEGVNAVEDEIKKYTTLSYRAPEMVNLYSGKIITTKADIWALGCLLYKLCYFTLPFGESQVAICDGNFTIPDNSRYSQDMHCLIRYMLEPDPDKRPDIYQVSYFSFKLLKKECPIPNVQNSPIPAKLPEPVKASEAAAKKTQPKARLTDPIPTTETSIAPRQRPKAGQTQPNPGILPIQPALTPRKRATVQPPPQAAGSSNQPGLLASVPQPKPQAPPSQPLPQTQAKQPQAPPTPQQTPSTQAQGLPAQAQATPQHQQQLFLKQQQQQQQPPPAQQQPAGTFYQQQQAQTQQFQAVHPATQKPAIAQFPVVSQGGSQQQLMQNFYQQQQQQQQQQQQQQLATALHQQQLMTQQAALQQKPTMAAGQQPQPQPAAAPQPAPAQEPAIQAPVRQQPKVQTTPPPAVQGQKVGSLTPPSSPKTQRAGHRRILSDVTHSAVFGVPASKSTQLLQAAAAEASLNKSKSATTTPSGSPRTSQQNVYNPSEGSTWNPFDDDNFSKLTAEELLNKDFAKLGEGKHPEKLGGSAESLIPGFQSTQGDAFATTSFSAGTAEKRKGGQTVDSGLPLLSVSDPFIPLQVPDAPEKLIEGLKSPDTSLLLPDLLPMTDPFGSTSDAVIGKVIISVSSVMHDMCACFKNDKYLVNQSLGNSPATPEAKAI

Compound	IC50
COc1ncccc1-c1cnn2ccc(N3CCN(C(=O)OCCOC(C)(C)C)CC3)nc12 [2-(tert-butoxy)ethyl 4-(3-(2-methoxypyridin-3-yl)pyrazolo[1,5-a]pyrimidin-5-yl)piperazine-1-carboxylate]	≤ 10 nM
COc1ncccc1-c1cnn2ccc(N3CCN(CCC(F)(F)F)CC3)nc12 [3-(2-methoxypyridin-3-yl)-5-(4-(3,3,3-trifluoropropyl)piperazin-1-yl)pyrazolo[1,5-a]pyrimidine]	≤ 1000 nM
COc1ncc(F)cc1-c1cnn2ccc(N3CCN(CC(F)(F)F)CC3)nc12 [3-(5-fluoro-2-methoxypyridin-3-yl)-5-(4-(2,2,2-trifluoroethyl)piperazin-1-yl)pyrazolo[1,5-a]pyrimidine]	≤ 1000 nM
COc1ncc(F)cc1-c1cnn2ccc(N3CCN(CCC(F)(F)F)CC3)nc12 [3-(5-fluoro-2-methoxypyridin-3-yl)-5-(4-(3,3,3-trifluoropropyl)piperazin-1-yl)pyrazolo[1,5-a]pyrimidine]	≤ 1000 nM
FC(F)(F)CN1CCN(c2ccn3ncc(Br)c3n2)CC1 [3-bromo-5-(4-(2,2,2-trifluoroethyl)piperazin-1-yl)pyrazolo[1,5-a]pyrimidine]	≤ 100 nM
CC(C)(C)OCCCNc1ccn2ncc(Br)c2n1 [3-bromo-N-(3-(tert-butoxy)propyl)pyrazolo[1,5-a]pyrimidin-5-amine]	≤ 1000 nM
COCc1cn(-c2ccn3ncc(-c4cccnc4OC)c3n2)cn1 [5-(4-(methoxymethyl)-1H-imidazol-1-yl)-3-(2-methoxypyridin-3-yl)pyrazolo[1,5-a]pyrimidine]	≤ 100 nM
COc1ncccc1-c1cnn2ccc(N3CCN(c4noc(C(C)C)n4)CC3)nc12 [5-isopropyl-3-(4-(3-(2-methoxypyridin-3-yl)pyrazolo[1,5-a]pyrimidin-5-yl)piperazin-1-yl)-1,2,4-oxadiazole]	≤ 100 nM
COc1ncccc1-c1cnn2ccc(-n3cnc(CO)c3)nc12 [(1-(3-(2-methoxypyridin-3-yl)pyrazolo[1,5-a]pyrimidin-5-yl)-1H-imidazol-4-yl)methanol]	≤ 100 nM
COc1ncccc1-c1cnn2ccc(N3C[C@H]4C[C@@H](C3)N4C(=O)OC(C)C)nc12 [(1R,5S)-isopropyl 3-(3-(2-methoxypyridin-3-yl)pyrazolo[1,5-a]pyrimidin-5-yl)-3,6-diazabicyclo[3.1.1]heptane-6-carboxylate]	≤ 100 nM
COc1ncccc1-c1cnn2ccc(N3C[C@H]4C[C@@H](C3)N4C(=O)OC(C)(C)C)nc12 [(1R,5S)-tert-butyl 3-(3-(2-methoxypyridin-3-yl)pyrazolo[1,5-a]pyrimidin-5-yl)-3,6-diazabicyclo[3.1.1]heptane-6-carboxylate]	≤ 100 nM
CCO/C=C/c1cnn2ccc(N3CCN(C(=O)OC(C)C)CC3)nc12 [(E)-isopropyl 4-(3-(2-ethoxyvinyl)pyrazolo[1,5-a]pyrimidin-5-yl)piperazine-1-carboxylate]	≤ 100 nM
COC/C=C/c1cnn2ccc(N3CCN(C(=O)OC(C)C)CC3)nc12 [(E)-isopropyl 4-(3-(3-methoxyprop-1-en-1-yl)pyrazolo[1,5-a]pyrimidin-5-yl)piperazine-1-carboxylate]	≤ 1000 nM
COc1ncccc1-c1cnn2ccc(N3CCN(C(=O)[C@H](N)CC(C)C)CC3)nc12 [(R)-2-amino-1-(4-(3-(2-methoxypyridin-3-yl)pyrazolo[1,5-a]pyrimidin-5-yl)piperazin-1-yl)-4-methylpentan-1-one]	≤ 100 nM
COc1ncccc1-c1cnn2ccc(N3CCN(C[C@@H](N)CC(C)C)CC3)nc12 [(S)-1-(4-(3-(2-methoxypyridin-3-yl)pyrazolo[1,5-a]pyrimidin-5-yl)piperazin-1-yl)-4-methylpentan-2-amine]	≤ 100 nM
CC(C)C[C@H](N)C(=O)N1CCN(c2ccn3ncc(Br)c3n2)CC1 [(S)-2-amino-1-(4-(3-bromopyrazolo[1,5-a]pyrimidin-5-yl)piperazin-1-yl)-4-methylpentan-1-one]	≤ 100 nM

Further lines, results first:

IC50	Compound
≤ 100 nM	COCC(COC)OC(=O)N1CCN(c2ccn3ncc(-c4cccnc4OC)c3n2)CC1 [1,3-dimethoxypropan-2-yl 4-(3-(2-methoxypyridin-3-yl)pyrazolo[1,5-a]pyrimidin-5-yl)piperazine-1-carboxylate]
≤ 10 nM	COc1ncccc1-c1cnn2ccc(N3CCN(C(=O)CC(C)C)CC3)nc12 [1-(4-(3-(2-methoxypyridin-3-yl)pyrazolo[1,5-a]pyrimidin-5-yl)piperazin-1-yl)-3-methylbutan-1-one]
≤ 100 nM	COCCOCCOC(=O)N1CCN(c2ccn3ncc(-c4cccnc4OC)c3n2)CC1 [2-(2-methoxyethoxy)ethyl 4-(3-(2-methoxypyridin-3-yl)pyrazolo[1,5-a]pyrimidin-5-yl)piperazine-1-carboxylate]
≤ 100 nM	COc1ncccc1-c1cnn2ccc(N3CCN(C(=O)OCCN(C)C)CC3)nc12 [2-(dimethylamino)ethyl 4-(3-(2-methoxypyridin-3-yl)pyrazolo[1,5-a]pyrimidin-5-yl)piperazine-1-carboxylate]
≤ 100 nM	COc1ncccc1-c1cnn2ccc(N3CCN(C(=O)C(C)(C)N)CC3)nc12 [2-amino-1-(4-(3-(2-methoxypyridin-3-yl)pyrazolo[1,5-a]pyrimidin-5-yl)piperazin-1-yl)-2-methylpropan-1-one]
≤ 100 nM	CCOCCOC(=O)N1CCN(c2ccn3ncc(-c4cccnc4OC)c3n2)CC1 [2-ethoxyethyl 4-(3-(2-methoxypyridin-3-yl)pyrazolo[1,5-a]pyrimidin-5-yl)piperazine-1-carboxylate]
≤ 10 nM	COc1ncccc1-c1cnn2ccc(N3CCN4C(=O)N(CC(C)C)CC4C3)nc12 (centres unmarked) [2-isobutyl-7-(3-(2-methoxypyridin-3-yl)pyrazolo[1,5-a]pyrimidin-5-yl)hexahydroimidazo[1,5-a]pyrazin-3(2H)-one]
≤ 100 nM	COC(=O)COC(=O)N1CCN(c2ccn3ncc(-c4cccnc4OC)c3n2)CC1 [2-methoxy-2-oxoethyl 4-(3-(2-methoxypyridin-3-yl)pyrazolo[1,5-a]pyrimidin-5-yl)piperazine-1-carboxylate]
≤ 10 nM	CCOc1ncccc1-c1cnn2ccc(N3CCN(C(=O)OCCOC)CC3)nc12 [2-methoxyethyl 4-(3-(2-ethoxypyridin-3-yl)pyrazolo[1,5-a]pyrimidin-5-yl)piperazine-1-carboxylate]
≤ 10 nM	COCCOC(=O)N1CCN(c2ccn3ncc(-c4cccnc4OC)c3n2)CC1 [2-methoxyethyl 4-(3-(2-methoxypyridin-3-yl)pyrazolo[1,5-a]pyrimidin-5-yl)piperazine-1-carboxylate]
≤ 100 nM	COc1nc(C)ccc1-c1cnn2ccc(N3CCN(CC(F)(F)F)CC3)nc12 [3-(2-methoxy-6-methylpyridin-3-yl)-5-(4-(2,2,2-trifluoroethyl)piperazin-1-yl)pyrazolo[1,5-a]pyrimidine]
≤ 100 nM	COc1ncccc1-c1cnn2ccc(N3CCN(CC(F)(F)F)CC3)nc12 [3-(2-methoxypyridin-3-yl)-5-(4-(2,2,2-trifluoroethyl)piperazin-1-yl)pyrazolo[1,5-a]pyrimidine]
≤ 10 nM	COCCCOC(=O)N1CCN(c2ccn3ncc(-c4cccnc4OC)c3n2)CC1 [3-methoxypropyl 4-(3-(2-methoxypyridin-3-yl)pyrazolo[1,5-a]pyrimidin-5-yl)piperazine-1-carboxylate]
